The text below walks through data of PubChem BioAssay (NCI).

Test systems include LOX IMVI melanoma; HCT-15 colon; IGROV1 ovarian; EKVX NSCLC; NCI-H23 lung; A498 renal; 786-0 renal; SF-295 CNS; MDA-MB-231 breast; NCI-H226 lung.
What all share (test): DTP human tumour cell line panel, 48 h

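Step 1: Grow cells in 96-well plates. Step 2: Expose to compound for 48 hours at 5 concentrations. Step 3: Interpolate endpoints linearly; if unreached, use highest concentration. GI50 = concentration required for 50% inhibition of growth. TGI is the concentration that stops growth completely.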 Where only a bound is given, the exact number is not on record here.

What is called GI50 is the concentration at which growth is held to half of that of the control. By TGI is commonly meant the concentration giving total growth inhibition. Higher therefore signals lower sensitivity of the cells.

As for `NC(N)=N/N=C/c1c(-c2ccsc2)nc2n1CCS2`, the GI50 was 16.3 µM with LOX IMVI melanoma; 24.7 µM in the experiment on HCT-15 colon; 48.8 µM in the experiment with IGROV1 ovarian; 58 µM with EKVX NSCLC; 23.8 µM with NCI-H23 lung; 64.1 µM in the experiment on A498 renal. Also, the GI50 in the experiment with 786-0 renal was 15.4 µM; with SF-295 CNS, more than 100 µM; in the experiment with MDA-MB-231 breast it was 28.1 µM; with NCI-H226 lung, 13 µM. For the same compound, the TGI in the experiment on LOX IMVI melanoma is 30.6 µM; in the experiment with HCT-15 colon it was 72.7 µM; in the experiment on IGROV1 ovarian, more than 100 µM; in the experiment with EKVX NSCLC, more than 100 µM; with NCI-H23 lung, 80 µM; in the experiment with A498 renal, more than 100 µM. Further, the TGI in the experiment on 786-0 renal is 38.7 µM; with SF-295 CNS, more than 100 µM; with MDA-MB-231 breast, 82.1 µM; in the experiment on NCI-H226 lung, 40.1 µM.
For the compound `O=C(CS(=O)(=O)c1nc2ccccc2nc1-c1ccccc1)Nc1ccc(F)cc1`, the GI50 with LOX IMVI melanoma was 36.7 µM; with HCT-15 colon, 39.9 µM; in the experiment on IGROV1 ovarian, 74 µM; in the experiment with EKVX NSCLC, more than 100 µM; with NCI-H23 lung, more than 100 µM; with A498 renal, 21.6 µM. Besides, the GI50 in the experiment with 786-0 renal was more than 100 µM; in the experiment with SF-295 CNS, more than 100 µM; in the experiment with MDA-MB-231 breast it was 34.7 µM; in the experiment with NCI-H226 lung, 85.7 µM. Also, the TGI in the experiment with LOX IMVI melanoma, with HCT-15 colon, with IGROV1 ovarian, in the experiment with EKVX NSCLC, with NCI-H23 lung and in the experiment on A498 renal was more than 100 µM each time. Moreover, the total growth inhibition concentration (TGI) in the experiment on 786-0 renal, with SF-295 CNS, in the experiment with MDA-MB-231 breast and with NCI-H226 lung was more than 100 µM each time.
As to `CCN(CC)c1ccc(/C=C/C(=O)c2ccc(Nc3nc(Nc4ccccc4)nc(Nc4ccccc4)n3)cc2)cc1`, the GI50 is 6.87 µM in the experiment on LOX IMVI melanoma; 2.54 µM in the experiment with HCT-15 colon; 4.64 µM in the experiment with IGROV1 ovarian; 4.07 µM in the experiment on EKVX NSCLC; 11.1 µM in the experiment on NCI-H23 lung; 7.44 µM with A498 renal. The GI50 with 786-0 renal was 5.21 µM; in the experiment with SF-295 CNS, 1.41 µM; with MDA-MB-231 breast, 13.5 µM; with NCI-H226 lung it was 26.9 µM. Besides, the TGI was more than 100 µM in the experiment with LOX IMVI melanoma; more than 100 µM with HCT-15 colon; more than 100 µM in the experiment with IGROV1 ovarian; more than 100 µM in the experiment on EKVX NSCLC; more than 100 µM with NCI-H23 lung; 48 µM in the experiment on A498 renal. Besides, the TGI was 27.7 µM with 786-0 renal, 23.3 µM in the experiment with SF-295 CNS, more than 100 µM in the experiment with MDA-MB-231 breast and more than 100 µM in the experiment on NCI-H226 lung.
Regarding `Cn1cc(/C=C\[N+](=O)[O-])c2ccccc21`, the GI50 in the experiment on LOX IMVI melanoma is 18 µM; in the experiment on HCT-15 colon, 44.3 µM; in the experiment on IGROV1 ovarian, 49.2 µM; in the experiment with EKVX NSCLC, more than 100 µM; in the experiment with NCI-H23 lung it was 74.7 µM; in the experiment with A498 renal, 3.36 µM. Moreover, the GI50 was more than 100 µM in the experiment with 786-0 renal, 52.9 µM with SF-295 CNS, 23.4 µM in the experiment with MDA-MB-231 breast and 53.3 µM with NCI-H226 lung. In addition, the TGI was 36 µM in the experiment with LOX IMVI melanoma; more than 100 µM with HCT-15 colon; more than 100 µM in the experiment with IGROV1 ovarian; more than 100 µM in the experiment on EKVX NSCLC; more than 100 µM with NCI-H23 lung; 7.39 µM in the experiment with A498 renal. Moreover, the TGI in the experiment on 786-0 renal was more than 100 µM; with SF-295 CNS, more than 100 µM; in the experiment on MDA-MB-231 breast, 78.8 µM; in the experiment with NCI-H226 lung, more than 100 µM.
Regarding `COc1cc2oc(-c3cccc(C(=O)Nc4ccc(Cl)cc4)c3)cc(=O)c2c(OC)c1OC`, the GI50 in the experiment on LOX IMVI melanoma was 0.413 µM; in the experiment with HCT-15 colon, 1.61 µM; with IGROV1 ovarian, 2.31 µM; in the experiment on EKVX NSCLC, 2.43 µM; in the experiment on NCI-H23 lung, 3.6 µM; in the experiment on A498 renal it was 2 µM. The GI50 with 786-0 renal is 2.53 µM; with SF-295 CNS, 1.47 µM; with MDA-MB-231 breast, 1.58 µM; in the experiment with NCI-H226 lung it was 2.24 µM. For the same compound, the total growth inhibition concentration (TGI) in the experiment on LOX IMVI melanoma is more than 100 µM; in the experiment on HCT-15 colon it was more than 100 µM; with IGROV1 ovarian, more than 100 µM; in the experiment on EKVX NSCLC, more than 100 µM; with NCI-H23 lung, more than 100 µM; with A498 renal it was 7.82 µM. For the same compound, the TGI in the experiment on 786-0 renal is more than 100 µM; with SF-295 CNS, 3.51 µM; in the experiment on MDA-MB-231 breast, more than 100 µM; with NCI-H226 lung it was 94.8 µM.
`CN1CCN(CC(=O)N(C)c2ccc(N=C(c3ccccc3)c3c(O)[nH]c4ccc(C#N)cc34)cc2)CC1`: the GI50 in the experiment on LOX IMVI melanoma is 1.08 µM; with HCT-15 colon, 3.55 µM; with IGROV1 ovarian, 3.33 µM; in the experiment on EKVX NSCLC, 5.27 µM; in the experiment on NCI-H23 lung, 2.87 µM; with A498 renal it was 0.176 µM. Also, the GI50 is 2.3 µM with 786-0 renal, 3.14 µM in the experiment on SF-295 CNS, 2.66 µM with MDA-MB-231 breast and 3.19 µM in the experiment with NCI-H226 lung. Also, the TGI was 2.58 µM in the experiment with LOX IMVI melanoma; 14.9 µM with HCT-15 colon; 15.5 µM in the experiment on IGROV1 ovarian; 19.7 µM in the experiment on EKVX NSCLC; 12.2 µM in the experiment with NCI-H23 lung; 2.46 µM in the experiment on A498 renal. Besides, the TGI with 786-0 renal worked out at 14.6 µM; in the experiment on SF-295 CNS, 15.8 µM; with MDA-MB-231 breast, 6.32 µM; with NCI-H226 lung, 16 µM.
Take `Oc1ccc(Br)cc1C=Nc1cccc(C(F)(F)F)c1`: the TGI with LOX IMVI melanoma, in the experiment with HCT-15 colon, with IGROV1 ovarian, in the experiment with EKVX NSCLC, in the experiment on NCI-H23 lung and with A498 renal was more than 100 µM each time. The TGI in the experiment on 786-0 renal is more than 100 µM; in the experiment on SF-295 CNS, more than 100 µM; with MDA-MB-231 breast, more than 100 µM; with NCI-H226 lung, 90.6 µM.
